The source of these data is US4605658A (priority 1983, dated 1986).

Converted amounts (≈) assume the structure as drawn. Like-named read-outs stand apart in the source and are kept apart here. Some results are limits rather than exact numbers.

Data set [1] in a line: Test 3: cytotoxicity, PRK cells. It counts as cell-based. The following applies: rabbit, Table 4, read-out: Minimum cytotoxic concentration (MCC). The procedure:
(§1) A further test was effected to determine the cytotoxicity of the chemical compounds of Table 1. Cell cultures were incubated with varying concentrations of the esters, during a time period equal to the period required for measuring antiviral activity. The compounds (S)-DHPA and (RS)-DHPA were used for comparative purposes. For each compound, the minimum cytotoxic concentration (MCC) was measured, that is the concentration required to cause a microscopically detectable alteration of normal cell morphology, when incubated with the cells in this way.

The next data set has as its system Sindbis virus. In words: microbe, parasite or virus in culture. The format is cell-based. The following applies: Vero.
Another data set has as its system Coxsackie virus-B4. Nature of the data set: Test 2: antiviral activity, Coxsackie virus-B4 in HeLa cells. To be noted: Table 3. The format is cell-based.
A further data set deals with Reo virus-1. In words: Test 2: antiviral activity, reo virus-1 in Vero cells. It counts as cell-based. To be noted: Reo virus-1, Vero cells; Table 3.
For a further data set, the system named is Measles virus. In words: microbe, parasite or virus in culture. The format is cell-based. The following applies: Measles morbillivirus, Vero.
The test system of another data set is Parainfluenza-virus-3. Nature of the data set: microbe, parasite or virus in culture. The format is cell-based. To be noted: Vero.
The nature of data set [2]: Test 3: cytotoxicity, Vero cells. It counts as cell-based, green monkey. To be noted: monkey, Table 4, read-out: Minimum cytotoxic concentration (MCC). The protocol:
as §1

Data set [3] concerns DNA and RNA viruses. To be noted: known DHPA and related derivatives; cited from earlier work.
A short description of data set [4]: Test 3: cytotoxicity, HeLa cells. It counts as cell-based. The following applies: human, Table 4, read-out: Minimum cytotoxic concentration (MCC). The procedure:
as §1

Another data set relates to Parainfluenza. Nature of the data set: microbe, parasite or virus in culture. To be noted: Vero B; read-out: MIC50. The format is cell-based.
In a further data set the test system is Reovirus 1. In words: Test 1: inhibition of virus cytopathic effect, reovirus 1 in Vero B cells. It counts as cell-based. The following applies: Mammalian orthoreovirus 1; Reovirus 1, Vero B cells; Table 2; read-out: MIC50. (Protection from cytopathic effect is a common read-out in antiviral testing.)
Another data set deals with Herpes simplex 1 (KOS). Nature of the data set: Test 1: inhibition of virus cytopathic effect, herpes simplex 1 (KOS) in PRK cells. The format is cell-based. To be noted: Table 2, read-out: MIC50.
A further data set has as its system Sindbis. Nature of the data set: Test 1: inhibition of virus cytopathic effect, Sindbis in Vero B cells. The format is cell-based. The following applies: Table 2, read-out: MIC50. The procedure:
The antiviral properties of the esters prepared in Example 1 was explored in a variety of cell cultures and with a variety of DNA and RNA viruses such as listed in Table 2. The cells of each cell culture were inoculated with a certain virus in a dose of about 100 CCID50, that is about 100 times the dose needed to infect 50 percent of the cells. One hour after inoculation, the celss were washed with Eagle's nutrient medium and an ester of Example 1 was added in a dose varying from zero to 300 ug/ml and sometimes to more than 400 ug/ml. The compound (S)-DHPA was used in a comparative experiment. […] The cytopathic effect itself was measured in control experiments with virus-infected cell cultures without any added chemical compound and recorded as soon as it reached completion (Method of L. J. Rosenthal and I. L. Schechmaister in "Tissue Culture", p. 510, Academic Press, New York, 1973).
The results are shown in Table 2, wherein the abbreviations have the following meaning: PRK: primary culture of rabbit kidney cells; Vero: continuous line of green monkey kidney cells, HeLa: epithelial line of human cervical carcinoma cells.

For data set [5], the system named is Vesicular stomatitis virus. The format is cell-based. The following applies: ratio of MCC (PRK cells) to MIC50 (vesicular stomatitis virus).
Another data set concerns Vaccinia. In words: microbe, parasite or virus in culture. It counts as cell-based. The following applies: Orthopoxvirus vaccinia, PRK, read-out: MIC50.
The next data set relates to Vesicular stomatitis. In words: microbe, parasite or virus in culture. To be noted: PRK, read-out: MIC50. The format is cell-based.
Another data set deals with Polio 1. Nature of the data set: microbe, parasite or virus in culture. It counts as cell-based. To be noted: HeLa, read-out: MIC50.
For a further data set, the system named is Measles. Nature of the data set: microbe, parasite or virus in culture. It counts as cell-based. To be noted: Measles morbillivirus, Vero; read-out: MIC50.
Another data set is described as follows: Solubility. It counts as physicochemical.
Data set [6] concerns DNA and RNA viruses. Nature of the data set: Antiviral activity against DNA and RNA viruses (general statements). The format is cell-based.
The next data set deals with living cells. The following applies: known DHPA; cited from earlier work.

For `Nc1ncnc2c1ncn2CC(O)CO` (racemic) [(RS)--DHPA, 9-(2,3-dihydroxypropyl)adenine, reference compound], the MCC in data set [1], in data set [2] and in data set [4] was greater than 400 µg/mL in each case. The EC50 was greater than 400 µg/mL with Sindbis virus; greater than 400 µg/mL in the data set with Coxsackie virus-B4; 100 µg/mL (≈ 478 µM) in the data set with Reo virus-1; 20 µg/mL (≈ 95.6 µM) in the data set on Measles virus; 20 µg/mL (≈ 95.6 µM) in the data set with Parainfluenza-virus-3. Besides, in the data set on DNA and RNA viruses [3], the “antiviral activity (in words)” value is reported as “antivirally active”.

`COC(=O)C(O)Cn1cnc2c(N)ncnc21` (racemic) [Compound 1, methylester of 3-(adenin-9-yl)-2-hydroxypropanoic acid]: the EC50 in the data set with Parainfluenza was 100 µg/mL (≈ 422 µM); in the data set on Reovirus 1, 300 µg/mL (≈ 1260 µM); in the data set on Herpes simplex 1 (KOS), greater than 400 µg/mL; in the data set with Sindbis virus it was greater than 400 µg/mL; in the data set with Sindbis it was greater than 400 µg/mL; with Coxsackie virus-B4, greater than 400 µg/mL. The EC50 with Reo virus-1 is 200 µg/mL (≈ 843 µM); with Measles virus, 40 µg/mL (≈ 169 µM); in the data set on Parainfluenza-virus-3, 20 µg/mL (≈ 84.3 µM); in the data set on Vaccinia, 7 µg/mL (≈ 29.5 µM); in the data set on Vesicular stomatitis, 3 µg/mL (≈ 12.6 µM); with Polio 1, greater than 400 µg/mL. For the same compound, the EC50 with Measles turned out to be 40 µg/mL (≈ 169 µM). The MCC in data set [1], in [2] and in data set [4] was greater than 400 µg/mL throughout. The antiviral index entry in data set [5] is reported as “higher than 100 -fold”.

For `CC(C)CCOC(=O)C(O)Cn1cnc2c(N)ncnc21` (racemic) [Compound 8], the MCC in data set [1], in data set [2] and in [4] was 400 µg/mL each time. For the same compound, the EC50 with Sindbis virus is 200 µg/mL (≈ 682 µM); in the data set with Coxsackie virus-B4, greater than 400 µg/mL; in the data set on Reo virus-1 it was 30 µg/mL (≈ 102 µM); in the data set with Measles virus, 12 µg/mL (≈ 40.9 µM); with Parainfluenza-virus-3 it was 200 µg/mL (≈ 682 µM). Besides, the antiviral index result in [5] is “higher than 100 -fold”.

Regarding `Nc1ncnc2c1ncn2CC(O)C(=O)O` (centres unmarked) [3-(adenin-9-yl)-2-hydroxypropanoic acid], the “solubility (in words)” value in “Solubility” is “poorly soluble in water”. For the same compound, the “antiviral activity (in words)” value in the data set with DNA and RNA viruses [6] is listed as “inactivity”.

`Nc1ncnc2c1ncn2C[C@H](O)CO` [(S)--DHPA, 9-(2,3-dihydroxypropyl)adenine, reference compound]: the EC50 with Reovirus 1 is 70 µg/mL (≈ 335 µM); with Herpes simplex 1 (KOS), greater than 400 µg/mL; with Sindbis virus, greater than 400 µg/mL; with Sindbis, greater than 400 µg/mL; in the data set with Coxsackie virus-B4, greater than 400 µg/mL; in the data set on Reo virus-1, 200 µg/mL (≈ 956 µM). The EC50 in the data set with Measles virus was 30 µg/mL (≈ 143 µM); in the data set with Parainfluenza-virus-3 it was 20 µg/mL (≈ 95.6 µM); in the data set on Vaccinia, 70 µg/mL (≈ 335 µM); in the data set on Vesicular stomatitis, 30 µg/mL (≈ 143 µM); in the data set with Polio 1, greater than 400 µg/mL; with Measles, 70 µg/mL (≈ 335 µM). The MCC in data set [1], in data set [2] and in data set [4] was greater than 400 µg/mL each time. Moreover, the “antiviral activity (in words)” value in the data set with DNA and RNA viruses [3] is recorded as “antivirally active”.

Turning to `CCOC(=O)[C@@H](O)Cn1cnc2c(N)ncnc21` [C2 H5 (S)], the EC50 is 100 µg/mL (≈ 398 µM) with Parainfluenza; 70 µg/mL (≈ 279 µM) in the data set on Reovirus 1; greater than 400 µg/mL in the data set with Herpes simplex 1 (KOS); greater than 400 µg/mL in the data set with Sindbis; 7 µg/mL (≈ 27.9 µM) with Vaccinia; 1.5 µg/mL (≈ 5.97 µM) in the data set on Vesicular stomatitis. The EC50 with Polio 1 is greater than 400 µg/mL; in the data set with Measles, 100 µg/mL (≈ 398 µM).

Turning to `COC(=O)[C@H](O)Cn1cnc2c(N)ncnc21` [CH3 (R), methylester of 3-(adenin-9-yl)-2-hydroxypropanoic acid], the EC50 is 200 µg/mL (≈ 843 µM) in the data set on Parainfluenza; 70 µg/mL (≈ 295 µM) in the data set with Reovirus 1; greater than 400 µg/mL in the data set on Herpes simplex 1 (KOS); greater than 400 µg/mL in the data set on Sindbis; 15 µg/mL (≈ 63.2 µM) with Vaccinia; 1.5 µg/mL (≈ 6.32 µM) in the data set on Vesicular stomatitis. The results for the EC50 in the data set on Polio 1 and with Measles were greater than 400 µg/mL and 15 µg/mL (≈ 63.2 µM), respectively.

Take `COC(=O)[C@@H](O)Cn1cnc2c(N)ncnc21` [CH3 (S), methylester of 3-(adenin-9-yl)-2-hydroxypropanoic acid]: the EC50 in the data set with Parainfluenza was 100 µg/mL (≈ 422 µM); in the data set with Reovirus 1 it was 300 µg/mL (≈ 1260 µM); with Herpes simplex 1 (KOS), greater than 400 µg/mL; in the data set with Sindbis it was greater than 400 µg/mL; in the data set on Vaccinia, 20 µg/mL (≈ 84.3 µM); in the data set on Vesicular stomatitis, 7 µg/mL (≈ 29.5 µM). Besides, the EC50 in the data set with Polio 1 was greater than 400 µg/mL; in the data set with Measles, 70 µg/mL (≈ 295 µM).

Take `Nc1ncnc2c1ncn2C[C@@H](O)CO` [DHPA R-enantiomeric form, 9-(2,3-dihydroxypropyl)adenine]: the “antiviral activity (in words)” value in the data set on DNA and RNA viruses [3] is “rather inactive”.

`Nc1ncnc2c1ncn2CC(O)CO` (centres unmarked) [DHPA, 9-(2,3-dihydroxypropyl)adenine]: in the data set with living cells, the “acute toxicity for living cells (in words)” value is recorded as “low acute toxicity for living cells”. Also, the “antiviral activity (in words)” value in the data set on DNA and RNA viruses [3] is recorded as “broad-spectrum antiviral activity in (S) or (RS) form”.
